Experiment in all cases: ≥ marks a high value that may be exact or a test limit, other limits are often not marked, values filed in µg/mL are converted to µM
For experiment [1], the system named is Staphylococcus aureus BCRC 10780.
Experiment [2] deals with Staphylococcus sp. BCRC 10451.
Experiment [3] has as its system Streptococcus agalactiae.
For experiment [4], the system named is Vibrio alginolyticus.
The test system of experiment [5] is Vibrio harveyi BCRC 13812.
For experiment [6], the system named is Bacillus subtilis.
Experiment [7] concerns Candida albicans.
Experiment [8] deals with Escherichia coli ML-35p.
Experiment [9] relates to Listeria monocytogenes EGD.
Experiment [10] concerns Neisseria gonorrhoeae F62.
The test system of experiment [11] is Neisseria gonorrhoeae FA19.
Experiment [12] has as its system Pseudomonas aeruginosa MR3007.
For experiment [13], the system named is Staphylococcus aureus 930918-3.
Experiment [14] deals with Acinetobacter baumannii CCARM 12005.
In experiment [15] the test system is Acinetobacter baumannii CCARM 12035.
The subject of experiment [16] is Acinetobacter baumannii CCARM 12036.
Experiment [17] concerns Acinetobacter baumannii CCARM 12037.
For experiment [18], the system named is Bacillus subtilis KCTC 1021.
Experiment [19] concerns Bacillus subtilis KCTC 1022.
The subject of experiment [20] is Bacillus subtilis KCTC 3068.
Experiment [21] concerns Escherichia coli CCARM 1229.
Experiment [22] deals with Escherichia coli CCARM 1238.
Experiment [23] deals with Escherichia coli KCTC 1682.
Experiment [24] has as its system Escherichia coli KCTC 2571.
In experiment [25] the test system is Escherichia coli KCTC 2593.
The subject of experiment [26] is Pseudomonas aeruginosa CCARM 2002.
In experiment [27] the test system is Pseudomonas aeruginosa CCARM 2003.
Experiment [28] has as its system Pseudomonas aeruginosa CCARM 2095.
Experiment [29] has as its system Pseudomonas aeruginosa CCARM 2163.
Experiment [30] concerns Pseudomonas aeruginosa KCTC 1637.
Experiment [31] concerns Pseudomonas aeruginosa KCTC 2004.
For experiment [32], the system named is Pseudomonas aeruginosa KCTC 2513.
For experiment [33], the system named is Salmonella typhimurium CCARM 8003.
Experiment [34] concerns Salmonella typhimurium CCARM 8007.
For experiment [35], the system named is Salmonella typhimurium CCARM 8009.
The test system of experiment [36] is Salmonella typhimurium KCTC 1926.
In experiment [37] the test system is Staphylococcus aureus CCARM 3089.
For experiment [38], the system named is Staphylococcus aureus CCARM 3090.
The test system of experiment [39] is Staphylococcus aureus CCARM 3108.
In experiment [40] the test system is Staphylococcus aureus CCARM 3114.
Experiment [41] relates to Staphylococcus aureus CCARM 3126.
Experiment [42] relates to Staphylococcus aureus KCTC 1621.
Experiment [43] deals with Staphylococcus aureus KCTC 1916.
The subject of experiment [44] is Staphylococcus aureus KCTC 3881.
For experiment [45], the system named is Staphylococcus epidermidis KCTC 1917.
For experiment [46], the system named is Bacillus subtilis DSM 347.
Experiment [47] relates to Escherichia coli BL21AI.
The subject of experiment [48] is Escherichia coli DSM 10233.
The subject of experiment [49] is Micrococcus luteus ATCC 10240.
Experiment [50] has as its system Micrococcus luteus DSM 1790.
Experiment [51] has as its system Staphylococcus aureus ATCC 25023.

≈ marks a conversion by molar mass, not a printed value. Where “and” joins values, the source holds several entries; their conditions need not be identical. Equal values may be shown once.

For the compound `CC[C@H](C)[C@H](NC(=O)[C@H](Cc1ccccc1)NC(C)=O)C(=O)N[C@@H](Cc1ccccc1)C(=O)N[C@@H](Cc1cnc[nH]1)C(=O)N[C@H](C(=O)N[C@H](C(=O)N[C@@H](CCCCN)C(=O)NCC(=O)N[C@@H](CC(C)C)C(=O)N[C@@H](Cc1ccccc1)C(=O)N[C@@H](Cc1cnc[nH]1)C(N)=O)[C@@H](C)CC)[C@@H](C)CC` [FIFHIIKGLFH], the MIC (in general, the lowest concentration that inhibits growth of the organism) was 4.56 µM (≈ 6.44 µg/mL) in experiment [1]; at least 72.9 µM in experiment [2]; at least 72.9 µM in [3]; 4.56 µM (≈ 6.44 µg/mL) in experiment [4]; 4.56 µM (≈ 6.44 µg/mL) in experiment [5].
`CC(C)C[C@H](N)C(=O)N[C@H]1CSSC[C@@H](C(=O)N[C@H](C(N)=O)C(C)C)NC(=O)[C@H](C(C)C)NC(=O)[C@@H]2CSSC[C@H](NC(=O)[C@H](Cc3ccc(O)cc3)NC1=O)C(=O)N[C@@H](CCCN=C(N)N)C(=O)N[C@@H](CCCN=C(N)N)C(=O)N[C@@H](CCCN=C(N)N)C(=O)N[C@@H](Cc1ccccc1)C(=O)N2` [LCYCRRRFCVCV]: the MIC was 0.22 µM and 0.21 µM in experiment [6]; 7.58 µM (≈ 11.5 µg/mL) in [7]; 0.28 µM and 0.26 µM in [8]; 0.26 µM and 0.55 µM in experiment [9]; 0.64 µM (≈ 0.97 µg/mL) in [10]; 1.34 µM (≈ 2.03 µg/mL) in [11]. The MIC was 0.2 µM and 0.29 µM in [12]; 0.33 µM and 0.4 µM in [13].
Turning to `CC[C@H](C)[C@H](NC(=O)CNC(=O)[C@H](CCCN=C(N)N)NC(=O)[C@H](Cc1ccccc1)NC(=O)[C@@H](NC(=O)[C@H](Cc1cnc[nH]1)NC(=O)[C@H](Cc1cnc[nH]1)NC(=O)[C@H](Cc1ccccc1)NC(=O)[C@@H](N)Cc1ccccc1)[C@@H](C)CC)C(=O)N[C@@H](CCCCN)C(=O)N[C@@H](Cc1cnc[nH]1)C(=O)N[C@H](C(=O)NCC(=O)N[C@@H](CCCCN)C(=O)N[C@H](C(=O)N[C@H](C(=O)N[C@@H](Cc1cnc[nH]1)C(=O)N[C@@H](CCCN=C(N)N)C(=O)N[C@@H](CC(C)C)C(=O)N[C@H](C(=O)N[C@H](C(=O)NCC(=O)O)[C@@H](C)O)C(C)C)[C@@H](C)CC)[C@@H](C)O)C(C)C` [FFHHIFRGIKHVGKTIHRLVTG], the MIC in [14] was found to be 2 µM (≈ 5.2 µg/mL); in experiment [15], 2 µM (≈ 5.2 µg/mL); in experiment [16] it was 2 µM (≈ 5.2 µg/mL); in experiment [17] it was 2 µM (≈ 5.2 µg/mL); in experiment [18], 4 µM (≈ 10.4 µg/mL); in experiment [19], 2 µM (≈ 5.2 µg/mL). Besides, the minimum inhibitory concentration (MIC) amounted to 1 µM (≈ 2.6 µg/mL) in experiment [20]; 4 µM (≈ 10.4 µg/mL) in experiment [21]; 4 µM (≈ 10.4 µg/mL) in experiment [22]; 1 µM (≈ 2.6 µg/mL) in experiment [23]; 2 µM (≈ 5.2 µg/mL) in experiment [24]; 2 µM (≈ 5.2 µg/mL) in experiment [25]. The MIC came to 2 µM (≈ 5.2 µg/mL) in experiment [26]; 2 µM (≈ 5.2 µg/mL) in experiment [27]; 2 µM (≈ 5.2 µg/mL) in experiment [28]; 2 µM (≈ 5.2 µg/mL) in [29]; 1 µM (≈ 2.6 µg/mL) in experiment [30]; 2 µM (≈ 5.2 µg/mL) in experiment [31]. Besides, the MIC in experiment [32] was found to be 2 µM (≈ 5.2 µg/mL); in experiment [33], 8 µM (≈ 20.8 µg/mL); in experiment [34], 4 µM (≈ 10.4 µg/mL); in [35] it was 4 µM (≈ 10.4 µg/mL); in experiment [36], 1 µM (≈ 2.6 µg/mL); in experiment [37], 8 µM (≈ 20.8 µg/mL). Besides, the MIC came to 8 µM (≈ 20.8 µg/mL) in experiment [38]; 4 µM (≈ 10.4 µg/mL) in [39]; 4 µM (≈ 10.4 µg/mL) in [40]; 4 µM (≈ 10.4 µg/mL) in [41]; 1 µM (≈ 2.6 µg/mL) in experiment [42]; 2 µM (≈ 5.2 µg/mL) in [43]. The MIC in experiment [44] and in experiment [45] was 1 µM (≈ 2.6 µg/mL) each time.
On to `CC[C@H](C)[C@H](NC(=O)[C@H](CCCN=C(N)N)NC(=O)[C@H](CCCN=C(N)N)NC(=O)[C@@H]1CCCN1C(=O)[C@@H]1CCCN1C(=O)[C@H](CCCN=C(N)N)NC(=O)[C@@H]1CCCN1C(=O)[C@H](CCCN=C(N)N)NC(=O)[C@@H]1CCCN1C(=O)[C@H](CC(C)C)NC(=O)[C@H](Cc1ccc(O)cc1)NC(=O)[C@@H]1CCCN1C(=O)[C@@H]1CCCN1C(=O)[C@H](CCCCN)NC(=O)[C@H](CC(=O)O)NC(=O)[C@@H](N)C(C)C)C(=O)N[C@@H](Cc1ccc(O)cc1)C(=O)N[C@@H](CC(N)=O)C(=O)O` [VDKPPYLPRPRPPRRIYN], for which the minimal inhibitory concentration (MIC) in experiment [46] was at least 55.9 µM; in experiment [47], 28.6 µM (≈ 64 µg/mL); in experiment [48], at least 55.9 µM; in experiment [49], at least 57.3 µM; in experiment [50] it was 6.98 µM (≈ 15.6 µg/mL).
`CC(C)C[C@H](NC(=O)[C@H](CCCN=C(N)N)NC(=O)[C@H](CC(C)C)NC(=O)[C@H](CC(C)C)NC(=O)[C@H](CC(C)C)NC(=O)[C@H](CC(C)C)NC(=O)[C@H](CCCCN)NC(=O)[C@H](CC(C)C)NC(=O)[C@@H](N)CCCN=C(N)N)C(N)=O` [RLKLLLLRL]: the MIC in experiment [51] is 14.1 µM (≈ 16 µg/mL).

The values are drawn from DBAASP.
